The results in this text go back to US20110053773A1, “METHODS OF IMPROVING NUTRITIONAL VALUE OF PLANTS” (UNIVERSITY OF TENNESSEE RESEARCH FOUNDATION, priority 2009, published 2011).

The experiment concerns basil 'Genovese'. Briefly: Content analysis of basil: protein, minerals (Example 4, Tables 10-11). Type of experiment: in vivo. The conditions noted are these: 28 DA-A, rates g ai/ha: chlroprifos 3370, chlorothalonil 7900, paclobutrazol 9.7, mepiquat-chloride 37, Isoxadifen 16, Napthalic anhydride 527, + NIS 0.25 % v/v. The procedure:
Greenhouse and laboratory studies were conducted to ascertain the tolerance and nutritional quality differences following postemergence applications of the insecticide chlorpyrifos, the fungicide chlorothalonil, the PGRs mepiquat-chloride and paclobutrazol, and the safeners napthalic anhydride and isoxadifen-ethyl on kale ‘Red Russian’ and basil ‘Genovese’. Visual injury was rated based on general phytotoxicity, chlorosis, and visual stunting and each measurement was based on a percent scale from 0 to 100 where 0 equals no visual response and 100 equals complete plant death. Kale and basil were both harvested approximately 4 weeks after treatments and plants were pooled over replicates for content analysis of crude protein, crude amino acid content, acid detergent fiber, neutral detergent fiber, total fatty acids, and/or key mineral content (including Na, Ca, P, Mg, K, Fe, Mn, Zn, and Cu). In addition, the amounts of key individual amino acids (aspartic acid, threonine, glutamic acid, proline, glycine, cysteine, valine, leucine, isoleucine, methionine, and lysine) and composite classifications of fatty acid (saturated fatty acids, monounsaturated fatty acids, polyunsaturated fatty acids) were also analyzed from these sub-samples for kale (Tables 10-14).

As for `CCOP(=S)(OCC)Oc1nc(Cl)c(Cl)cc1Cl` [chlroprifos], the “ADF, Percent Increase Over the Untreated Check (on a % dry matter basis)” value was found to be 10 % check; the “Calcium, Percent Increase Over the Untreated Check (on a % dry matter basis)” value was determined as 3 % check; the “Copper, Percent Increase Over the Untreated Check (on a % dry matter basis)” value is given as 8 % check; the “Iron, Percent Increase Over the Untreated Check (on a % dry matter basis)” value worked out at 57 % check. Also, the “Magnesium, Percent Increase Over the Untreated Check (on a % dry matter basis)” value is given as 21 % check; the “Manganese, Percent Increase Over the Untreated Check (on a % dry matter basis)” value is 12 % check; the “NDF, Percent Increase Over the Untreated Check (on a % dry matter basis)” value stood at 9 % check; the “Phosphorous, Percent Increase Over the Untreated Check (on a % dry matter basis)” value was 50 % check. Moreover, the “Potassium, Percent Increase Over the Untreated Check (on a % dry matter basis)” value was found to be 27 % check; the “Protein, Percent Increase Over the Untreated Check (on a % dry matter basis)” value amounted to 32 % check; the “Sodium, Percent Increase Over the Untreated Check (on a % dry matter basis)” value came out at 25 % check; the “Soluble protein, Percent Increase Over the Untreated Check (on a % dry matter basis)” value is on record as 42 % check. Further, the “Zinc, Percent Increase Over the Untreated Check (on a % dry matter basis)” value was 46 % check.
